# According to publication PMC6656724 (Communications Biology, 2019):
# “And” between values parts separate entries of the source, which are not always exact repeats. Equal entries are not always repeated.
# Legend:
# PfKMO [1] = target: T1, PfKMO (Pseudomonas fluorescens, UniProt Q84HF5, C252S/C461S); assay: Stopped-flow reduction of flavin cofactor by NADPH; assay type: biochemical; settings: for Reduction rate of flavin cofactor: PfKMO with saturating ligand, 2 mM NADPH, 25 °C, anaerobic; for Stimulation of KMO reduction by NADPH: rapid mixing stopped-flow assays
# T1 construct: made in house; host or cells: E. coli BL21 (DE3)
# T1 sequence (Q84HF5 whole entry C252S/C461S): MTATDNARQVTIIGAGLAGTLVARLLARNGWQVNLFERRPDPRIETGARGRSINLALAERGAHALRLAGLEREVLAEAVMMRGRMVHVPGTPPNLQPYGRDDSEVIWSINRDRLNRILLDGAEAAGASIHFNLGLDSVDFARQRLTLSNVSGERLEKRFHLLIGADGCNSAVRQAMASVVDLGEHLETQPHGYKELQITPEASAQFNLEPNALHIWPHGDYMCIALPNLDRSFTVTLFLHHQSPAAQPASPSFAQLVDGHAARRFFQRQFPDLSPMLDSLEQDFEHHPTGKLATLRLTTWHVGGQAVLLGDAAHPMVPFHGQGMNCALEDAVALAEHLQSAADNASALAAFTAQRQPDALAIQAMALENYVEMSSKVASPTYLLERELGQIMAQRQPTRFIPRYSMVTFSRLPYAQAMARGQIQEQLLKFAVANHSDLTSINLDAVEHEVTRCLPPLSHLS
# Method: The reduction rate of the flavin cofactor by NADPH was measured using a stopped-flow spectrophotometer (Applied Photophysics Ltd), which was housed in an anaerobic glovebox (Belle Technology). […] The reduction of the flavin was monitored by the decrease in the absorbance of the flavin at 450 nm and transients were fitted to either double or triple exponentials.
# Supplementary Figure 13. Reduction of flavin cofactor by NADPH in the presence and absence of ligands. Anaerobic mixtures of 10 µM PfKMO with or without ligand were mixed against anaerobic 2 mM NADPH on a stopped-flow spectrophotometer at 25℃. a, 10 µM PfKMO mixed with 2 mM NADPH; b, 10 µM
# PfKMO [2] = target: T1, PfKMO; assay: biochemical; settings: for Mechanism of inhibition with respect to L-KYN / Mechanism of inhibition with respect to NADPH: PfKMO
# Method: saturating concentrations of the L-KYN and NADPH substrates. Data are plotted […]
# (§1) consumption of NADPH at 340 nm upon addition of enzyme via a Cary 50 UV-Vis spectrophotometer (Agilent Technologies). Rates were determined from linear regression fits to the initial linear portion of the curves. All measurements were performed in triplicate. The IC50 values for inhibitors were obtained by plotting the percentage inhibition versus the inhibitor concentration and fitting to the Morrison equation16 (equation 1) using Origin 9.0 Software (OriginLab, Northampton, MA).
# E + I + K!"" − E + I + K!"" ! − 4[E][I] where v0 is the enzyme activity without inhibitor, vi is the enzyme activity with ligand concentration [I], [E] is the enzyme concentration, [I] is the inhibitor concentration, K!"" is the apparent inhibition constant and IC = K!"" + [!] . If K!"" ≫ [!], IC ≈ […]
# where Ki is the inhibition constant, [S] is the substrate concentration used in the assay and Km is the Michaelis-Menten constant17. […]
# between Ki and Ki apparent values, as the conditions for measuring IC50 are different, Ki values can be used to compare with other reported KMO inhibitors.
# Steady-state kinetic parameters for PfKMO were calculated by measuring initial rates […]
# the observed rate of turnover (v) versus the varied substrate concentration were fitted to equation 2 using Origin 9.0 Software (OriginLab, Northampton, MA).
# A B + K!! B + K!! A + K!!K!! where v is the initial rate of activity, Vmax is the maximum velocitie of the reaction, [A] and [B] are the substrate concentration, K!! and K!! are the Michaelis-Menten constant for different substrate and K!! is the inhibition (binding) constant of substrate A to the free enzyme while forming transitory complexes.18
# Product inhibition studies were carried out by measuring reaction rates at varying […]
# one substrate and varying concentrations of the other substrate. Inhibition studies with target compounds were carried out by measuring reaction rates at varying inhibitor concentrations at saturating concentrations of one substrate and varying concentrations of the other substrate. […]
# were used to distinguish between different types of inhibition. The data were fitted to a straight line defined by the Lineweaver-Burke equation (equation 4), with the y intercept providing 1/Vmax and the x intercept giving -1/Km. […]
# Homo sapiens KMO (HsKMO) = target: T2, Homo sapiens KMO (HsKMO) (Homo sapiens, UniProt O15229); assay: KMO inhibition assay, NADPH oxidation at 340 nm (HsKMO); assay type: biochemical
# T2 construct: GST; made in house
# T2 sequence (O15229 whole entry): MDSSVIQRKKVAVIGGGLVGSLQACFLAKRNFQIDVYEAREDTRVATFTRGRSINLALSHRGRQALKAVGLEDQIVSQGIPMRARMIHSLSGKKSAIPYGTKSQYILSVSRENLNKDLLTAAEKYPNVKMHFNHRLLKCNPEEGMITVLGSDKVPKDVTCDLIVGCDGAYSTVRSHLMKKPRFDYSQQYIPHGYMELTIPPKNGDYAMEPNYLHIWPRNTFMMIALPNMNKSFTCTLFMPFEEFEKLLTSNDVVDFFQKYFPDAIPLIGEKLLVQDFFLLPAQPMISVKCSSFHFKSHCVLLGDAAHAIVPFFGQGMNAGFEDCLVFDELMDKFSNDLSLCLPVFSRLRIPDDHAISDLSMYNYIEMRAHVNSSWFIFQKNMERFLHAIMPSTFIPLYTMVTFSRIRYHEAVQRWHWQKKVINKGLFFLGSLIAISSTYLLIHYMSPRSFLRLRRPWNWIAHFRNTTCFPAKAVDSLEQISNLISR
# From the text: (§2) A combination of ligand- and structural-based virtual screening approaches (see supporting information for details) was used to identify an initial library of >1000 compounds that may be suitable as potential KMO inhibitors. These compounds were screened for inhibition of Pseudomonas fluorescens KMO (PfKMO) and Homo sapiens KMO (HsKMO) using high-throughput assays by monitoring the time-dependent oxidation of NADPH at 340 nm[23].
# (§3) Small-molecule compounds were supplied by Biofocus (Charles River Laboratories International Inc., MA, USA), which were identified in silico as potential inhibitors (further details are described in the Supplementary Methods). Initial inhibition assays were performed against Pseudomonas fluorescens KMO (PfKMO) and Homo sapiens KMO (HsKMO) by monitoring the time-dependent absorbance change of NADPH at 340 nm. Purified KMO protein (200 nM) was incubated in 100 µL reaction buffer (20 mM potassium phosphate pH 8.0, 7 mM 2-mercaptoethanol) containing 100 μM NADPH, 100 μM L-Kyn and 20 μM potential inhibitors in 96-well plates. […] The inhibitors identified in the initial screens were validated and re-assayed individually in a 1 cm path-length quartz micro cuvette. […] Suppliers for target inhibitor compounds are listed in Supplementary Table 11.
# Supplementary Figure 1. Examples of inhibition data used to generate IC50 values for selected KMO inhibitors.
# (§4) NADPH (100µM) were added into reaction buffer (HsKMO: 20mM potassium phosphate pH 8.0, 7 mM 2-mercaptoethanol; PfKMO: 20 mM HEPES, 10mM sodium acetate, pH 7.5, 2mM DTT). The reaction was initiated by the addition of KMO enzyme (HsKMO: 0.5µM; PfKMO: 0.1 µM). KMO activity was measured in the presence of a range of inhibitor concentrations. […]
# (§5) 3.5 Steady-state enzymatic assays.
# (§6) Initial screening assays and determination of IC50 values for each potential inhibitor compound were carried out using either 0.1 µM PfKMO or 0.5 µM HsKMO at fixed […]
# (§7) (HsKMO: 20 mM potassium phosphate pH 8.0, 7 mM 2-mercaptoethanol; PfKMO:
# (§8) 20 mM HEPES, 10 mM sodium acetate, pH 7.5, 2 mM DTT). KMO activity was measured in the presence of a range of inhibitor concentrations by monitoring the […]
# as §1
# E + I + K!"" − E + I + K!"" ! − 4[E][I] where v0 is the enzyme activity without inhibitor, vi is the enzyme activity with ligand
# [3] = target: T3, Pseudomonas fluorescens KMO (PfKMO) (Pseudomonas fluorescens, UniProt Q84HF5, C252S/C461S); assay: biochemical
# T3 construct: made in house; host or cells: E. coli BL21 (DE3)
# T3 sequence (Q84HF5 whole entry C252S/C461S): as the sequence (Q84HF5 whole entry C252S/C461S) above
# From the text: as §2, §3
# as §4, with “Supplementary Figure 1. Examples of inhibition data used to generate IC50 values for selected KMO inhibitors. Fixed concentration of L -KYN (200 µM) and NADPH” for “NADPH”
# as §5, §6, §7, §8
# as §1, with “MA). […]” for “MA).”
# [4] = Mouse brain penetration study; assay type: in vivo, female C57BL6 mice; settings: mouse
# Method: Inhibitor 1 (and prodrugs 1a, 1b, 1c and 1d) was dosed as a bolus solution intravenously at 1 mg free base/kg (dose volume: 5 mL/kg; dose vehicle: 5% DMSO; 95% saline (inhibitor 1) or 5% DMSO; 40% PEG400; 55% MilliQ H2O (prodrugs 1a, 1b, 1c and 1d)) to female C57BL6 mice (n = 6). At 5 min and 60 min following intravenous bolus injection of test compound, mice (n = 3/timepoint) were placed under terminal anaesthesia with isofluorane. A blood sample was taken by cardiac puncture, the […] decapitated and the brain removed. Brain weight was noted and each brain homogenised with two volumes of methanol (2 mL/g brain). Each blood sample was diluted with distilled water (1:10). Diluted blood and the brain homogenates were then stored frozen until preparation and analysis by UPLC-MS/MS. For each mouse at each timepoint for 1, the concentration in brain (ng/g) was divided by the concentration in blood (ng/mL) to give a brain:blood ratio. The mean value obtained was quoted. For prodrugs 1a to 1d, only the concentration of 1 in blood (ng/mL) and brain (ng/g) was reported.
# A rapid and sensitive ultra-performance chromatography/tandem mass spectrometry (UPLC-MS/MS) method was developed and validated for the determination of inhibitor 1 and prodrug 1b (rat only). Chromatographic analysis was conducted on a Waters Acquity™ UPLC system. Chromatographic separation was performed with an Acquity™ UPLC BEH C18 column (50 × 2.1 mm, 1.7 µm, 130Å; Waters Corp.) maintained at 40 °C in a column oven. The mobile phase consisted of water with 0.01% formic acid and ACN with 0.01 % formic acid and it was delivered at a flow rate of 0.6 mL/min under gradient eluent conditions within an analysis cycle time of 3 min. The mass detection was conducted on a Waters Xevo™ TQs mass spectrometer equipped with a ScanWave™ technology. Quantitation of the analyte was performed in electrospray positive ionisation mode (ESI^+) using multiple reaction monitoring. The optimised fragmentation transition was m/z = 270.17 → 196.19 (mouse) or m/z = 270.17 → 223.76 (rat) for inhibitor 1 and m/z = 297.83 → 195.74 for prodrug 1b (rat).
# Sample extraction for blood and brain homogenate was by protein precipitation (1:3 or 1:6) using ACN containing suitable internal standard. Extracts were vortexed followed by centrifugation (2800 rpm for 10 min). An aliquot of each supernatant was then diluted two-fold in distilled water ready for analysis by UPLC-MS/MS.
# The weighted 1/x^2 calibration line was linear in the dynamic range of 1–5000 ng/mL for inhibitor 1 and 1–1000 ng/mL for prodrug 1b with a correlation coefficient (r^2) > 0.99 (inhibitor 1) or 0.98 (prodrug 1b). The quality control samples (QC) were prepared by using the same spiking scheme as the calibration samples and up to four different target concentration brain levels: 2 ng/mL (LQC), 40 ng/mL (MQC), 100 ng/mL (HQC) and 2000 ng/mL. Data collection, peak integration and calculations were performed using MassLynx software, version 2.1.
# [5] = system: KMO activity in the striatum; assay: De novo 3-HK synthesis after intrastriatal [5-3H]-kynurenine; assay type: in vivo, Sprague–Dawley rats
# [6] = 1 mg/kg i.v., 5 min, single mice, analyte inhibitor 1 (also after prodrugs) or 1h
SMILES,Reduction rate of flavin cofactor (PfKMO [1]),Stimulation of KMO reduction by NADPH (PfKMO [1]),Ki (PfKMO [2]),Mechanism of inhibition with respect to L-KYN (PfKMO [2]),Mechanism of inhibition with respect to NADPH (PfKMO [2]),IC50 (Homo sapiens KMO (HsKMO)),IC50 [3],Km (PfKMO [2]; substrates of PfKMO),"In blood [4, 6]","In brain [4, 6]","In brain ([4]; 1 mg/kg i.v., 60 min, single mice, analyte inhibitor 1 (also after prodrugs) or 1h)",Release of 1 in blood and brain ([4]; prodrug 1 mg/kg i.v. bolus),"Reduction of [3H]-3-HK ([5]; rat striatum, 50 mg/kg i.v., 1 h)","Percentage of [5-3H]-KYN that is metabolized into [3H]-3-HK ([5]; striatum of awake rats, 1 h after 50 mg/kg i.v., single rats)"
"O=C(O)c1ccc(-c2cccc(Cl)c2Cl)o1 [compound 9, 5-(2,3-dichlorophenyl) furan-2-carboxylic acid]",0.03 ± 0.001 s⁻¹,do not stimulate,0.15 ± 0.01 µM,competitive inhibitor,competitive inhibitor,39.6 µM,4.3 ± 0.2 µM,–,–,–,–,–,–,–
"Cn1c(C(=O)N[C@@H](C(=O)O)c2ccccc2)cc2cc(Cl)ccc21 [compound 4, (R)-2-(5-chloro-1-methyl-1H-indole-2-carboxamido)-2-phenylacetic acid]",0.03 ± 0.005 s⁻¹,do not stimulate,3 ± 0.24 µM,competitive inhibitor,mixed type inhibitors,6.1 µM,59.8 ± 7.14 µM,–,–,–,–,–,–,–
"Nc1ccccc1C(=O)C[C@H](N)C(=O)O [L-KYN, reference compound]",339 ± 16.6 s⁻¹,–,–,–,–,–,–,12.1 ± 1.4 µM,–,–,–,–,–,–
Cc1cc2c(c(C)c1Cl)N(CC(=O)OC(C)(C)C)C(=O)CO2 [1d],–,–,–,–,–,> 300 µM,~200 µM,–,≤ LLoQ,≤ LLoQ,≤ LLoQ,undetectable,–,–
"O=C(O)c1ccc(-c2ccc(Cl)c(Cl)c2)o1 [compound 13, 5-(3,4-dichlorophenyl) furan-2-carboxylic acid]",0.06 ± 0.002 s⁻¹,do not stimulate,0.02 ± 0.001 µM,competitive inhibitor,mixed type inhibitors,63.1 µM,0.4 ± 0.02 µM,–,–,–,–,–,–,–
COc1ccc(S(=O)(=O)Nc2nc(-c3cccc([N+](=O)[O-])c3)cs2)cc1OC [Ro 61-8048],–,–,–,–,–,–,–,–,–,–,–,–,no reduction,2.76% and 5.1% and 4.48% and 5.65% and 2.31% and 2.1%
